According to the supplement of paper PMC12420376:

Assays:
[1] = system: KURAMOCHI; experiment: drug sensitivity score (DSS2) on cancer cell count; higher = more sensitive; extreme values may be limits of the assay; settings: 72 h
Method in brief: (§1)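 Cancer cell counts came from 10× images (4 fields) of fixed cells immunostained for CK8/18 with Hoechst. The ovarian cancer cells had been grown alone or in 1:1 direct co-culture with lung or skin fibroblasts on 384-well plates pre-spotted acoustically with 528 approved and investigational compounds at 5 concentrations, then treated for 72 h. Breeze was used to derive a drug sensitivity score from logistic fits of the data.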

[2] = system: OVCAR8; experiment: as above; settings: 72 h
Method in brief: as §1

[3] = co-cultured fibroblast: BJHTERT
[4] = co-cultured fibroblast: none (monoculture)

Compound	drug sensitivity score [1, 3] [DSS]	drug sensitivity score ([1]; co-cultured fibroblast: WI38) [DSS]	drug sensitivity score [1, 4] [DSS]	drug sensitivity score [2, 3] [DSS]	drug sensitivity score ([2]; co-cultured fibroblast: WI38) [DSS]	drug sensitivity score [2, 4] [DSS]
Cc1[nH]nc(C(F)(F)F)c1Cc1sc2c(c1C(=O)N1C[C@](C)(O)CO1)c(=O)n(C)c(=O)n2C(C)C [AZD3965]	0	1.7	0	0	0	0
COc1cc(CCc2cc(NC(=O)c3ccc(N4CC(C)NC(C)C4)cc3)n[nH]2)cc(OC)c1 (configuration not stated) [AZD4547]	0	0	0	0	0	0
C[C@@H]1COCCN1c1cc(C2([S@](C)(=N)=O)CC2)nc(-c2cc[nH]c3nccc2-3)n1 [AZD6738]	10.4	8.6	10.9	11.1	4.4	8.1
CN(C)C(=O)c1ccc(S(=O)(=O)c2ccc(NC(=O)[C@@](C)(O)C(F)(F)F)c(Cl)c2)cc1 [AZD7545]	0.4	0	0	3.4	0	0.7
NC(=O)Nc1cc(-c2cccc(F)c2)sc1C(=O)N[C@H]1CCCNC1 [AZD7762]	8.7	6.6	22.4	7.3	9.2	4.5
COc1ccc(-c2ccc3c(N4CCOC[C@@H]4C)nc(N4CCOC[C@@H]4C)nc3n2)cc1CO [AZD8055]	21.3	18.1	19	17.9	11.4	21
N#Cc1ccc2[nH]c(O)c(-c3ccc(CN4CCOCC4)cn3)c2c1 [AZD-1080]	0	0	0	0.1	0	0
Cc1ncc(-c2ccnc(Nc3ccc(S(C)(=O)=O)cc3)n2)n1C(C)C [AZD-5438]	17.8	22.5	17.7	19	19.2	17.2
Cc1cc([C@@H](C)Nc2ccccc2C(=O)O)c2nc(N3CCOCC3)cc(=O)n2c1 [AZD-6482]	6.1	1.5	4.4	1.2	0	0
C[C@@H](Nc1cc(F)cc(F)c1)c1cc(C(=O)N(C)C)cc2c(=O)cc(N3CCOCC3)oc12 [AZD-8186]	8.7	3.8	6.5	0	0	0.8
CCN1CCN(Cc2ccc(Nc3ncc(F)c(-c4cc(F)c5nc(C)n(C(C)C)c5c4)n3)nc2)CC1 [Abemaciclib]	5.5	7.8	0.2	9.4	0	2.4
CN(C)Cc1c(C(=O)NCCOc2ccc(C(=O)NO)cc2)oc2ccccc12 [Abexinostat]	17.2	20.6	15.7	25.3	18.5	27.9
C[C@]12CC[C@H](O)CC1=CC[C@@H]1[C@@H]2CC[C@]2(C)C(c3cccnc3)=CC[C@@H]12 [Abiraterone]	0	0	0	0	0	0
CC#CC(=O)N1CCC[C@H]1c1nc(-c2ccc(C(=O)Nc3ccccn3)cc2)c2c(N)nccn12 [Acalabrutinib]	0	0	11	0	0	0
CN(C)C/C=C/C(=O)Nc1cc2c(Nc3ccc(F)c(Cl)c3)ncnc2cc1O[C@H]1CCOC1 [Afatinib]	5.3	5	3.1	3.1	0	2.4
Cn1ncc(Cl)c1-c1cc(C(=O)N[C@H](CN)Cc2cccc(F)c2)sc1Cl [Afuresertib]	1.1	0	0	0.3	0	0
COc1cccc2c1C(=O)c1c(O)c3c(c(O)c1C2=O)C[C@@](O)(/C(CO)=N/NC(=O)CCCCCN1C(=O)C=CC1=O)C[C@@H]3O[C@H]1C[C@H](N)[C@H](O)[C@H](C)O1 [Aldoxorubicin]	13.3	13.8	19.1	12.9	11.7	13.1
CCc1cc2c(cc1N1CCC(N3CCOCC3)CC1)C(C)(C)c1[nH]c3cc(C#N)ccc3c1C2=O [Alectinib]	0	0	0	0	0	0
Oc1ncnc2[nH]ncc12 [Allopurinol]	0	0	0	0	0	0
Cc1nc(NC(=O)N2CCC[C@H]2C(N)=O)sc1-c1ccnc(C(C)(C)C(F)(F)F)c1 [Alpelisib]	0	0	0	0	0	0.4
CN1CC[C@H](c2c(O)cc(O)c3c(=O)cc(-c4ccccc4Cl)oc23)[C@H](O)C1 [Alvocidib]	19.3	20.2	20.9	20.8	21.6	21
CCN(CC)CCNC(=O)c1c(C)[nH]c(/C=C2\C(=O)Nc3ccc(-c4csc(-c5ccccc5)n4)cc32)c1C [Amcasertib]	8.1	3.9	6.7	3.3	3.1	0
CCC1(c2ccc(N)cc2)CCC(=O)NC1=O (configuration not stated) [Aminoglutethimide]	5.8	0	0	0	0.4	0
COc1cc(NS(C)(=O)=O)ccc1Nc1c2ccccc2nc2ccccc12 [Amsacrine]	14.4	18.8	21.8	20.1	19.2	23.8
S=C(NCc1ccc2c(c1)OCO2)N1CCN(c2ncnc3c2oc2ccccc23)CC1 [Amuvatinib]	2.5	0.5	0	8.6	0	2.2
O=C1CN2Cc3c(ccc(Cl)c3Cl)N=C2N1 [Anagrelide]	0	0	0	0	11.9	0
CC(C)(C#N)c1cc(Cn2cncn2)cc(C(C)(C)C#N)c1 [Anastrozole]	0	0	0	0	0	0
